Assay results as given in PubChem BioAssay (NCI).
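Cultured in 96-well plates, cells were exposed to test compound for 48 hours across five concentrations. GI50 is the concentration that inhibits growth by half. TGI denotes the concentration required for complete inhibition of growth.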

Columns and labels:
Assay in all cases: inhibition of tumour cell growth, NCI panel, 48 h
SNB-19 CNS = tested on: SNB-19 CNS
MOLT-4 leukemia = tested on: MOLT-4 leukemia
SK-MEL-2 melanoma = tested on: SK-MEL-2 melanoma
TK-10 renal = tested on: TK-10 renal
CCRF-CEM leukemia = tested on: CCRF-CEM leukemia
NCI-H460 lung = tested on: NCI-H460 lung
HS 578T breast = tested on: HS 578T breast
OVCAR-3 ovarian = tested on: OVCAR-3 ovarian

## N=C1C(c2nc(-c3ccc(Br)cc3)cs2)=C(O)CN1CC1CCCO1 (stereo unspecified)
SNB-19 CNS
  GI50: > 100 µM
  TGI: > 100 µM
MOLT-4 leukemia
  GI50: > 100 µM
  TGI: > 100 µM
SK-MEL-2 melanoma
  GI50: > 100 µM
  TGI: > 100 µM
TK-10 renal
  GI50: > 100 µM
  TGI: > 100 µM
CCRF-CEM leukemia
  GI50: > 100 µM
  TGI: > 100 µM

## C(#Cc1ccccc1C#Cc1ccccn1)c1ccccn1
SNB-19 CNS
  GI50: 18 µM
  TGI: 39.3 µM
MOLT-4 leukemia
  GI50: 3.44 µM
  TGI: 20.1 µM
NCI-H460 lung
  GI50: 23.1 µM
  TGI: 58.8 µM
SK-MEL-2 melanoma
  GI50: 18.4 µM
  TGI: 36 µM
TK-10 renal
  GI50: 6.54 µM
  TGI: 22.3 µM
CCRF-CEM leukemia
  GI50: 13.8 µM
  TGI: 38.6 µM

## N#Cc1ncc(N2C(=O)C3(CCC3)N(c3ccc(OC4CCNCC4)nc3)C2=S)cc1C(F)(F)F
SNB-19 CNS
  GI50: 36.8 µM
  TGI: > 100 µM
MOLT-4 leukemia
  GI50: 13.1 µM
  TGI: 42 µM
NCI-H460 lung
  GI50: 16.8 µM
  TGI: 31.7 µM
SK-MEL-2 melanoma
  GI50: 15.1 µM
  TGI: 30.5 µM
TK-10 renal
  GI50: 17.9 µM
  TGI: 39.1 µM
HS 578T breast
  GI50: 15.9 µM
  TGI: 41.5 µM
CCRF-CEM leukemia
  GI50: 13.5 µM
  TGI: 39.1 µM

## COc1ccc(/C=C/c2cnc3ccccc3n2)cc1OC
MOLT-4 leukemia
  TGI: > 100 µM
NCI-H460 lung
  TGI: > 100 µM
OVCAR-3 ovarian
  TGI: > 100 µM
SK-MEL-2 melanoma
  TGI: > 100 µM
TK-10 renal
  TGI: > 100 µM
HS 578T breast
  TGI: > 100 µM
CCRF-CEM leukemia
  TGI: > 100 µM

## C[C@H]1CCC/C=C/[C@@H]2C[C@H](O)C[C@H]2[C@H](O)[C@@H](SC2OC(CO)C(O)C(O)C2O)CC(=O)O1 (stereo partly specified)
SNB-19 CNS
  GI50: > 100 µM
  TGI: > 100 µM
MOLT-4 leukemia
  GI50: > 100 µM
  TGI: > 100 µM
OVCAR-3 ovarian
  GI50: > 100 µM
  TGI: > 100 µM
SK-MEL-2 melanoma
  GI50: > 100 µM
  TGI: > 100 µM
TK-10 renal
  GI50: > 100 µM
  TGI: > 100 µM
CCRF-CEM leukemia
  GI50: 61.2 µM
  TGI: > 100 µM

## CN(C)c1ccc(N=C(C#N)c2nc(N)nc(N3CCN(c4ccccc4)CC3)n2)cc1
SNB-19 CNS
  GI50: > 50 µM
  TGI: > 50 µM
MOLT-4 leukemia
  GI50: > 50 µM
  TGI: > 50 µM
NCI-H460 lung
  GI50: 14.7 µM
  TGI: > 37 µM
OVCAR-3 ovarian
  GI50: 27.5 µM
  TGI: > 50 µM
SK-MEL-2 melanoma
  GI50: > 50 µM
  TGI: > 50 µM
TK-10 renal
  GI50: > 30.6 µM
  TGI: > 50 µM
CCRF-CEM leukemia
  GI50: > 50 µM
  TGI: > 50 µM

## O=c1oc2cc(OS(=O)(=O)c3ccccc3)ccc2c2c1CCCCC2
SNB-19 CNS
  GI50: > 100 µM
  TGI: > 100 µM
MOLT-4 leukemia
  GI50: 4.35 µM
  TGI: > 100 µM
NCI-H460 lung
  GI50: 4.27 µM
  TGI: > 100 µM
SK-MEL-2 melanoma
  GI50: > 100 µM
  TGI: > 100 µM
TK-10 renal
  GI50: > 100 µM
  TGI: > 100 µM
HS 578T breast
  GI50: > 100 µM
  TGI: > 100 µM
CCRF-CEM leukemia
  GI50: 4.56 µM
  TGI: > 100 µM

## Cc1nc2sc(C(=O)Nc3cccc(Cl)c3C)c(N)c2cc1C(C)O (stereo unspecified)
SNB-19 CNS
  GI50: 0.293 µM
  TGI: > 100 µM
MOLT-4 leukemia
  GI50: 0.151 µM
  TGI: > 42.7 µM
NCI-H460 lung
  GI50: 0.237 µM
  TGI: > 37.2 µM
OVCAR-3 ovarian
  GI50: 0.114 µM
  TGI: > 33.4 µM
HS 578T breast
  GI50: 0.182 µM
  TGI: > 74.9 µM
CCRF-CEM leukemia
  GI50: 0.115 µM
  TGI: > 54.7 µM

## CC(=O)NS(=O)(=O)c1ccc(-n2nc(-c3ccccc3)cc2C2=CC(=O)C=CC2=O)cc1
SNB-19 CNS
  GI50: > 100 µM
  TGI: > 100 µM
MOLT-4 leukemia
  GI50: 16.4 µM
  TGI: 73.7 µM
NCI-H460 lung
  GI50: > 100 µM
  TGI: > 100 µM
OVCAR-3 ovarian
  GI50: > 100 µM
  TGI: > 100 µM
SK-MEL-2 melanoma
  GI50: > 100 µM
  TGI: > 100 µM
TK-10 renal
  GI50: 75.4 µM
  TGI: > 100 µM
HS 578T breast
  GI50: 22.3 µM
  TGI: > 100 µM

## CCN(CC)CCOc1nc2cc(OC)c(OC)cc2c2c1-c1ccc(OC)cc1C2=O
SNB-19 CNS
  GI50: 10.5 µM
  TGI: 23.7 µM
MOLT-4 leukemia
  GI50: 1.91 µM
  TGI: 17.6 µM
NCI-H460 lung
  GI50: 1.22 µM
  TGI: 2.72 µM
OVCAR-3 ovarian
  GI50: 11.7 µM
  TGI: 24 µM
TK-10 renal
  GI50: 16.1 µM
  TGI: 29.6 µM
HS 578T breast
  GI50: 20.4 µM
  TGI: 44.9 µM
CCRF-CEM leukemia
  GI50: 0.54 µM
  TGI: 12.3 µM

## O=C(c1ccccc1)c1ccccc1C(=O)c1ccccc1
SNB-19 CNS
  GI50: > 100 µM
  TGI: > 100 µM
MOLT-4 leukemia
  GI50: 32.7 µM
  TGI: > 100 µM
NCI-H460 lung
  GI50: 35.9 µM
  TGI: > 100 µM
OVCAR-3 ovarian
  GI50: 41 µM
  TGI: > 100 µM
SK-MEL-2 melanoma
  GI50: 58.6 µM
  TGI: > 100 µM
TK-10 renal
  GI50: 32.8 µM
  TGI: > 100 µM
CCRF-CEM leukemia
  GI50: 42.9 µM
  TGI: > 100 µM

## CC(C)N(Cc1ccccc1)S(=O)(=O)c1n[nH]c(C(C)(C)C)n1
SNB-19 CNS
  TGI: > 100 µM
NCI-H460 lung
  TGI: > 100 µM
OVCAR-3 ovarian
  TGI: > 100 µM
SK-MEL-2 melanoma
  TGI: > 100 µM
TK-10 renal
  TGI: > 100 µM
HS 578T breast
  TGI: > 100 µM
CCRF-CEM leukemia
  TGI: > 100 µM

## Cc1ccc(/C=C2\CN(Cc3cn(CCNc4ccnc5cc(Cl)ccc45)nn3)C/C(=C\c3ccc(C)cc3)C2=O)cc1
SNB-19 CNS
  GI50: 1.82 µM
  TGI: 3.43 µM
NCI-H460 lung
  GI50: 1.54 µM
  TGI: 3.38 µM
OVCAR-3 ovarian
  GI50: 1.8 µM
  TGI: 3.24 µM
SK-MEL-2 melanoma
  GI50: 1.99 µM
  TGI: 3.65 µM
TK-10 renal
  GI50: 1.91 µM
  TGI: 3.36 µM
HS 578T breast
  GI50: 1.97 µM
  TGI: 5.53 µM
